These results are taken from patent publication US20260001875A1, “AMINOPYRIMIDINYL DERIVATIVES FOR THE TREATMENT OF PARKINSON'S DISEASE” (UNIVERSITY OF DUNDEE, priority 2022, published 2026).

One experiment concerns Rab10 pThr73. Put plainly: Rab10 Thr73 dephosphorylation (immunoblot) in WT MEFs. In kind it is cell-based, mouse. The note with it: for inhibition at 0.033 µM / inhibition at 1 µM: read-out: pRab10 inhibited in WT MEFs; for EC50: dose response, read-out: WT MEFs pRab10-dephosphrylation EC50. The essentials: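 Wild-type mouse embryonic fibroblasts in 6-well plates were treated with LRRK2 PROTACs, with two biological replicates per condition. Cells were washed in PBS and lysed on ice in buffer containing phosphatase and protease inhibitors plus 1% Triton X-100, then clarified at 15,000 g. Rab10 Thr73 phosphorylation was measured by quantitative immunoblotting of 15 to 20 μg protein on 4-12% Bis-Tris gels.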

Another experiment concerns LRRK2 pSer935. Briefly: LRRK2 Ser935 dephosphorylation (immunoblot) in LRRK2^G2019S MEFs. In kind it is cell-based, mouse. The note with it: for EC50: Mus musculus, dose response; for T1/2 GS-pSer935-LRRK2: LRRK2^G2019S MEFs. The procedure: Western blot degradation assays for the LRRK2 protacs were performed with WT and PD-associated LRRK2 [G2019S] mouse embryonic fibroblasts (MEFs). The second-generation PROTACs were tested in parallel with the first generation PROTACs SD75, SD82, and SD100. The compounds were tested at 33 nM or […] concentrations for 4 hours or 24 hours, running two biological replicates per condition and achieving quantifications representative of both replicates. Analysis by quantitative immunoblotting was performed with readouts of the total LRRK2 (antibody recognizes epitope in C-terminus of protein), Rab10 pThr73 (physiological substrate) and LRRK2 pSer935 (biomarker phosphorylation site).
Primary MEFs were generated as described in a previous study (Wiggin et al., Mol. Cell Biol. 2002 April; 22(8):2871-81.). Briefly, the uterine horn was collected from adult female mice at day E12.5 and transferred to a 10 cm tissue culture dish containing cold PBS. Two forceps were used to tear the yolk sacs to isolate each embryo. Forceps were cleaned thoroughly with 70% ethanol between each embryo isolation. The embryos were culled, and a tissue piece was collected in a PCR tube for genotyping. The red tissue of the embryo, which grows to become the heart and liver, was removed. The remainder of the embryo was minced with a scalpel blade and incubated with 7.5 ml trypsin-EDTA solution for 10 minutes in a 37° C. tissue culture CO2 incubator. The dish was removed from the incubator and checked under a light microscope for single cells. 7.5 ml complete media was added to the trypsinised cells, and the cell suspension was transferred to a 15 ml Falcon tube, centrifuged at 1200 rpm for 5 minutes at room temperature. The trypsin was aspirated, the cell pellet was resuspended in 5 ml fresh complete media, and the cell suspension was plated in a 60 mm tissue culture dish and incubated in a 37° C., 5% CO2 tissue culture incubator. The MEFs at this stage were considered as passage 0 and were passaged and expanded for experimental use once the genotype was confirmed by allelic sequencing and immunoblotting. MEFs were cultured in Dulbecco's modified Eagle medium (DMEM) containing 10% (v/v) fetal bovine serum (FBS), 2 mM L-glutamine, 100 U/ml penicillin, and 100 μg/ml streptomycin supplemented with 1× non-essential amino acids and 1 mM sodium pyruvate.
Culturing and passaging of adherent cell lines were carried out using aseptic technique in CL1 or CL2 (for PBMC isolation) biological safety cabinets. All cells were incubated in a 37° C. incubator with 5% CO2. Cell lines were regularly tested for mycoplasma contamination. For western blot assay, the cells were seeded in 6-well plates. After treating with testing compounds at indicated concentrations and time period, the media was removed and the cells were washed with PBS and lysed in 100 μl ice-cold complete lysis buffer containing 50 mM Tris-HCl pH 7.4, 1 mM EGTA, 10 mM 2-glycerophosphate, 50 mM sodium fluoride, 5 mM sodium pyrophosphate, 270 mM sucrose, supplemented with 1 μg/ml microcystin-LR, 1 mM sodium orthovanadate, complete EDTA-free protease inhibitor cocktail (Roche) and 1% (v/v) Triton X-100. The cells were immediately placed on ice and were scraped and collected into 1.5 ml Eppendorf tubes. Cell lysates were incubated on ice for 10 minutes prior to centrifugation at 15,000 g at 4° C. for 15 minutes. The cell pellet was discarded, and supernatant was collected for analysis by quantitative immunoblotting. For long term storage, the supernatant was flash frozen and stored at −80° C. Protein concentrations of cell lysates were determined using the Bradford assay.
Cell lysates containing a quarter of a volume of 4× NuPAGE LDS sample buffer (NP0007) supplemented with 5% β-mercaptoethanol, were heated at 95° C. for 5 minutes. […]

Another experiment deals with T1, LRRK2^G2019S (Mus musculus, UniProt Q5S006, G2019S).
T1 construct: endogenous in cells; host or cells: LRRK2[G2019S] mouse embryonic fibroblasts (MEFs)
Put plainly: Western blot LRRK2 degradation in LRRK2^G2019S MEFs. It is filed as cell-based. The following applies: dose response.

The mark [1] stands for this setting: Mus musculus, 33 nM/4 h treatment.
[2] abbreviates: Mus musculus, 33 nM/24 h treatment.
Where [3] appears, read: Mus musculus, 1 μM/4 h treatment.
Where [4] appears, read: Mus musculus, 1 μM/24 h treatment.
Where [5] appears, read: Mus musculus, time course at 300 nM, WT MEFs.

Read-outs that look alike come from different tables or passages of the source.

T1 sequence (Q5S006 whole entry G2019S): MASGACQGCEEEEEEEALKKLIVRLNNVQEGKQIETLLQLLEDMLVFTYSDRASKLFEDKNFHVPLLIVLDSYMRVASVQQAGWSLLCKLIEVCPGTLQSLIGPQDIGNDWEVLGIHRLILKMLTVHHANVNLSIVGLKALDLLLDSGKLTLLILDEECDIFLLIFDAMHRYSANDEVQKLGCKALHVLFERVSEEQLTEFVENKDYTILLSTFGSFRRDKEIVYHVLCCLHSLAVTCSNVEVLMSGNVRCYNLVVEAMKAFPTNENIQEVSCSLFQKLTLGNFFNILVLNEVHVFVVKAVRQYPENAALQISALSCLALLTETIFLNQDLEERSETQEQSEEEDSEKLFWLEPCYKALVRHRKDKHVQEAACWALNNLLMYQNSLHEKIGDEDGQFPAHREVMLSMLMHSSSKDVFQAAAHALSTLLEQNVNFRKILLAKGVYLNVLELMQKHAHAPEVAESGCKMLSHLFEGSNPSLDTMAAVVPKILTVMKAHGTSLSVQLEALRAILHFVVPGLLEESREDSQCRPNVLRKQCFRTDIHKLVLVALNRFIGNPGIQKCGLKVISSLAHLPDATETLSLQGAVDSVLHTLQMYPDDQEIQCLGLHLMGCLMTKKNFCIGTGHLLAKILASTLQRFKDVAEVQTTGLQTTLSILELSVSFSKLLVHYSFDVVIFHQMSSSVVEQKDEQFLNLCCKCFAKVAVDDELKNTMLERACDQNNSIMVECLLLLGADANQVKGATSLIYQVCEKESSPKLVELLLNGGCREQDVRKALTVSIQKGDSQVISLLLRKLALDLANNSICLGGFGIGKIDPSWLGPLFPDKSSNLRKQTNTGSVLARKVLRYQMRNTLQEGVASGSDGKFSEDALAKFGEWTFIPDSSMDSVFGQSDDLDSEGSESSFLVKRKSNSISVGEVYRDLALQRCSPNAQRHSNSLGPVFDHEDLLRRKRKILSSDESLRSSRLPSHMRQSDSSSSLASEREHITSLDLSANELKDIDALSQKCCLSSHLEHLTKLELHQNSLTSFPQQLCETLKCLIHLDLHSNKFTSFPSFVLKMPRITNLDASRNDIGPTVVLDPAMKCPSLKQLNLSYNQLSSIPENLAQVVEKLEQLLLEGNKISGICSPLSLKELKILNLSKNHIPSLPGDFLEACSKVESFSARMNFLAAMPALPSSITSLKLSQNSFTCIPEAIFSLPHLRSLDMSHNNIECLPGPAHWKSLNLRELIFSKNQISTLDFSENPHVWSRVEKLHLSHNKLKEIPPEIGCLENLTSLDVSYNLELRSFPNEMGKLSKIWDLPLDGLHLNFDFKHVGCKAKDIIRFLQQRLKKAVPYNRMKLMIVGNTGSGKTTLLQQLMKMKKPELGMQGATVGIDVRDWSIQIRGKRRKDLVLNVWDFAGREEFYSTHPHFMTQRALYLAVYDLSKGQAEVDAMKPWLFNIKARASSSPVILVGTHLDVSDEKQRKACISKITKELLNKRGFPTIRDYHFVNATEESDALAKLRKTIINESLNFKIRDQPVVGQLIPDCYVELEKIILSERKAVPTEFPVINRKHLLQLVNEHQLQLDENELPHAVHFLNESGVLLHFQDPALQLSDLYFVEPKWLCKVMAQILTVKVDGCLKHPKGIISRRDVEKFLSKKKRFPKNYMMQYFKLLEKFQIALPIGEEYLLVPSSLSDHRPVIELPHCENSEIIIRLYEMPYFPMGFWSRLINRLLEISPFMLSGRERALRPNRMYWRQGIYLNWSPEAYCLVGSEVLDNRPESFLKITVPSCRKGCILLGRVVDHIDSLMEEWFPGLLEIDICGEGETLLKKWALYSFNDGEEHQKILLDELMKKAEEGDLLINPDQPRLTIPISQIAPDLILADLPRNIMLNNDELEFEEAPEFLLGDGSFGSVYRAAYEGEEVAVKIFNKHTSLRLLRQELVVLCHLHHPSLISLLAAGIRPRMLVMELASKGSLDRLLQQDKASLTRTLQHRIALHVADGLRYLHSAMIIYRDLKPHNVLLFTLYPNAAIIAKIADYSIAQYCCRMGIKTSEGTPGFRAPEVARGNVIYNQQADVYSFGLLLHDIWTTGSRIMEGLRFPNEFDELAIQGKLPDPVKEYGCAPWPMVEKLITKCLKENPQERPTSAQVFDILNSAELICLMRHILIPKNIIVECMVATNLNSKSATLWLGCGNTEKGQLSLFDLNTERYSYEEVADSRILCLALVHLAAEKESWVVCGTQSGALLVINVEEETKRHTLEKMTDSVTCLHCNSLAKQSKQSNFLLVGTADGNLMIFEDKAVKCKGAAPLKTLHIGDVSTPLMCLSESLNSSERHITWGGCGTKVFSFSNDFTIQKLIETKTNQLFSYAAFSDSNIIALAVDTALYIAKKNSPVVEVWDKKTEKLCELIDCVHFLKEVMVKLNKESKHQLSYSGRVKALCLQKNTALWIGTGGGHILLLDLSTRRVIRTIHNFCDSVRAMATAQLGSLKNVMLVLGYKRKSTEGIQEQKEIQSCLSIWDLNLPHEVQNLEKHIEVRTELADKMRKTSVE

Take `CNc1nc(Nc2ccc(C(=O)N3CCN(C[C@H]4CC[C@@H](CSC(C)(C)[C@H](NC(=O)C5(F)CC5)C(=O)N5C[C@H](O)CC5C(=O)NCc5ccc(-c6scnc6C)cc5)CC4)CC3)cc2OC)ncc1Cl` (stereo partly drawn) [XL01134]: the values for the inhibition at 0.033 µM in the experiment with Rab10 pThr73 (setting [1]) and in the experiment with Rab10 pThr73 (setting [2]) were 0 to 40% and 0 to 60%, respectively. The inhibition at 1 µM fell in the range of 10 to 95% with Rab10 pThr73 (setting [3]) and 30 to 100% in the experiment on Rab10 pThr73 (setting [4]). Also, the 50% effective concentration (EC50) in the experiment with Rab10 pThr73 (Mus musculus, 4 h treatment) came out at 74 nM; in the experiment on LRRK2 pSer935 (4 h treatment), 5 nM. The same molecule had a Dmax at 0.3 µM with Rab10 pThr73 (setting [5]) of 68%. Moreover, the “T1/2 of Rab10 dephosphorylation (WT)” value in the experiment on Rab10 pThr73 (time course at 300 nM, WT MEFs) worked out at 2.1 h. Also, the “T1/2 GS-pSer935-LRRK2” value in the experiment with LRRK2 pSer935 (time course at 300 nM) was 0.3 h. Further, half-maximal degradation on LRRK2^G2019S (4 h treatment) (DC50) was put at 7 nM. In addition, the “Dmax on G2019S MEFs” value at LRRK2^G2019S (4 h treatment) was 78%.

Take `CNc1nc(Nc2ccc(C(=O)N3CCN(CCOCCOCCSC(C)(C)[C@H](NC(=O)C4(F)CC4)C(=O)N4C[C@H](O)C[C@H]4C(=O)NCc4ccc(-c5scnc5C)cc4)CC3)cc2OC)ncc1Cl` [SD75, (2S,4R)-1-((R)-3-((2-(2-(2-(4-(4-((5-chloro-4-(methylamino)pyrimidin-2-yl)amino)-3-methoxybenzoyl)piperazin-1-yl)ethoxy)ethoxy)ethyl)thio)-2-(1-fluorocyclopropane-1-carboxamido)-3-methylbutanoyl)-4-hydroxy-N-(4-(4-methylthiazol-5-yl)benzyl)pyrrolidine-2-carboxamide]: the “Selectivity Index (pRab10 dephosphorylation, WT vs G2019S MEFs)” value with Rab10 pThr73 (24 h) came to 6.0. Moreover, the inhibition at 0.033 µM in the experiment on Rab10 pThr73 (setting [1]) was 0 to 25%. Besides, the inhibition at 1 µM in the experiment on Rab10 pThr73 (setting [3]) fell in the range of 18 to 90%; with Rab10 pThr73 (setting [4]) it was 30 to 90%. The Dmax at 1 µM in the experiment with Rab10 pThr73 (Mus musculus, time course at 1000 nM, WT MEFs) was 41%. Also, the concentration giving a half-maximal response (EC50) in the experiment on Rab10 pThr73 (24 h treatment) turned out to be 2270 nM; in the experiment on LRRK2 pSer935 (24 h treatment), 279 nM. In addition, in the experiment with Rab10 pThr73 (time course at 1000 nM, WT MEFs), the “T1/2 of Rab10 dephosphorylation (WT)” value was 6.7 h. Moreover, the “T1/2 GS-pSer935-LRRK2” value in the experiment with LRRK2 pSer935 (time course at 1000 nM) is recorded as 1.4 h. Besides, the “Dmax on G2019S MEFs” value on LRRK2^G2019S (24 h treatment) is given as 43%.

For `CNc1nc(Nc2ccc(C(=O)N3CCN(C[C@H]4CC[C@H](CSC(C)(C)[C@H](NC(=O)C5(F)CC5)C(=O)N5C[C@H](O)CC5C(=O)NCc5ccc(-c6scnc6C)cc5)CC4)CC3)cc2OC)ncc1Cl` (stereo partly drawn) [XL01126, (2S,4R)-1-((R)-3-((((1R,4R)-4-((4-(4-((5-chloro-4-(methylamino)pyrimidin-2-yl)amino)-3-methoxybenzoyl)piperazin-1-yl)methyl)cyclohexyl)methyl)thio)-2-(1-fluorocyclopropane-1-carboxamido)-3-methylbutanoyl)-4-hydroxy-N-(4-(4-methylthiazol-5-yl)benzyl)pyrrolidine-2-carboxamide], the inhibition at 0.033 µM with Rab10 pThr73 (setting [2]) is 0 to 60%. The molecule further registered a Dmax at 0.3 µM with Rab10 pThr73 (setting [5]) of 84%. In the experiment with LRRK2 pSer935 (4 h treatment), this molecule came in with an EC50 of 9 nM. In addition, the “T1/2 GS-pSer935-LRRK2” value in the experiment with LRRK2 pSer935 (time course at 300 nM) turned out to be 0.3 h. Further, at LRRK2^G2019S (4 h treatment), half-maximal degradation (DC50) was put at 14 nM and the “Dmax on G2019S MEFs” value is listed as 80-90%.
